# Tests used:
# [1] = target: Bovine Serum Albumin (BSA) (Bos taurus, UniProt P02769); assay: Flocculation: interaction of ZLC with BSA solutions (turbidity, pH, observation); format: physicochemical; conditions: for Turbidity (NTU) / observation / pH: ZLC about 15 mg/ml, 5 hours at 37° C.
# Protocol: Turbidity and pH of solutions are measured 5 hours after the mixtures were placed in a 37° C. oven, and the results are shown in Table 3.
# [2] = Hydrolysis reaction: pH and turbidity of diluted ZLC solutions before and after aging; format: physicochemical; conditions: for pH after aging / turbidity after aging (NTU): aged in 37° C. oven over 5 hours; for initial pH / initial turbidity (NTU): before aging; for initial turbidity (NTU): nephelometer
# Protocol: Hydrolysis reaction: A 185 mg/ml ZLC solution is prepared and diluted several-fold and aged in a 37° C. oven over 5 hours for turbidity studies. […] Turbidity of the solutions is measured using a nephelometer, results being given in nephelometric turbidity units (NTU).
# The precipitates formed in the 8×, 16× and 32× diluted solutions are collected by centrifugation and identified as crystalline ZnO by PXRD. From the supernatant, a single crystal is grown and shown by X-ray diffraction to be Lysine Monohydrochloride Dihydrate (LysineHCl·2H2O).
# The mechanism of the ZLC hydrolysis reaction can be expressed as [Zn(Lysine)2Cl]^+Cl^−·2H2O+H2O→ZnO+Lysine·HCl·2H2O
# [3] = sample 1: DI water, 0% BSA, initial pH 6.4
# [4] = sample 2: 1% BSA, initial pH 7.2
# [5] = sample 3: 1% BSA, pH adjusted to 5.1
# Sequence of Bovine Serum Albumin (BSA) (P02769 25-607): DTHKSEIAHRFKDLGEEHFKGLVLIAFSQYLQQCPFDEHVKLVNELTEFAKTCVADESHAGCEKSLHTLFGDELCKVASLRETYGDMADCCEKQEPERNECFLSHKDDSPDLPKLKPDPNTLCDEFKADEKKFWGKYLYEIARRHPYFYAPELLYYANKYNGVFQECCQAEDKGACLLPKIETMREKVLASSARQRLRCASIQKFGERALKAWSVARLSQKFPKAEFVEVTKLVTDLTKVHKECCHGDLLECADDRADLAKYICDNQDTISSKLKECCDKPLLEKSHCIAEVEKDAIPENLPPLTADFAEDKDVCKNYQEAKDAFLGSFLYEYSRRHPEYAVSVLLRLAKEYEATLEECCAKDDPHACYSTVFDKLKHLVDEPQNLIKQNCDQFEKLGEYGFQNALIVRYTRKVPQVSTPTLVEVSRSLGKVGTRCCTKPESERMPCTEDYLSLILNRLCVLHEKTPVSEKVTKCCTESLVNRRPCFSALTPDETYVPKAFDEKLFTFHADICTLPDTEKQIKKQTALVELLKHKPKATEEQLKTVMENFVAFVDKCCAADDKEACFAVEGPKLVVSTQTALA
compound,measurement,setting,value
"NCCCCC(N)C(=O)O.NCCCCC(N)C(=O)O.O.O.[Cl-].[Cl-].[Zn+2] (centres unmarked) [ZLC, [Zn(C6H14N2O2)2Cl]^+Cl^−]",protein flocculation,[1]; BSA as protein,ability to flocculate proteins
same,Turbidity (NTU),[1]; [3],357 NTU
same,observation,[1]; [3],slightly cloudy
same,pH,[1]; [3],8
same,Turbidity (NTU),[1]; [4],>1000 NTU
same,observation,[1]; [4],very cloudy
same,pH,[1]; [4],8.2
same,Turbidity (NTU),[1]; [5],>1000 NTU
same,observation,[1]; [5],very cloudy
same,pH,[1]; [5],8
same,pH after aging,[2]; 5.78 mg/ml ZLC solution,8
same,turbidity after aging (NTU),[2]; 5.78 mg/ml ZLC solution,>1000 NTU
same,initial pH,[2]; 5.78 mg/ml ZLC solution,8
same,initial turbidity (NTU),[2]; 5.78 mg/ml ZLC solution,40.1 NTU
same,pH after aging,[2]; 11.56 mg/ml ZLC solution,7.8
same,turbidity after aging (NTU),[2]; 11.56 mg/ml ZLC solution,>1000 NTU
same,initial pH,[2]; 11.56 mg/ml ZLC solution,7.8
same,initial turbidity (NTU),[2]; 11.56 mg/ml ZLC solution,14.8 NTU
same,pH after aging,[2]; 23.125 mg/ml ZLC solution,7.7
same,turbidity after aging (NTU),[2]; 23.125 mg/ml ZLC solution,247.4 NTU
same,initial pH,[2]; 23.125 mg/ml ZLC solution,7.7
same,initial turbidity (NTU),[2]; 23.125 mg/ml ZLC solution,0.7 NTU
same,pH after aging,[2]; 46.25 mg/ml ZLC solution,7.4
same,turbidity after aging (NTU),[2]; 46.25 mg/ml ZLC solution,2.8 NTU
same,initial pH,[2]; 46.25 mg/ml ZLC solution,7.4
same,initial turbidity (NTU),[2]; 46.25 mg/ml ZLC solution,1.5 NTU
same,pH after aging,[2]; 92.5 mg/ml ZLC solution,7
same,turbidity after aging (NTU),[2]; 92.5 mg/ml ZLC solution,2.6 NTU
same,initial pH,[2]; 92.5 mg/ml ZLC solution,7
same,initial turbidity (NTU),[2]; 92.5 mg/ml ZLC solution,2.8 NTU
same,pH after aging,[2]; 185 mg/ml ZLC solution,6.8
same,turbidity after aging (NTU),[2]; 185 mg/ml ZLC solution,4.1 NTU
same,initial pH,[2]; 185 mg/ml ZLC solution,6.8
same,initial turbidity (NTU),[2]; 185 mg/ml ZLC solution,4.7 NTU
same,stability of the complex upon dilution with water,"[2]; precipitates of 8×, 16× and 32× diluted solutions identified as crystalline ZnO by PXRD",disassociates upon dilution
